Test results: patent US20260355239A1, “COMBINATION OF A T CELL THERAPY AND CONTINUOUS OR INTERMITTENT DGK INHIBITOR DOSING” (Juno Therapeutics, Inc., priority 2022, published 2026)
Where two headings read alike, the source gives them in different places.

Experiments:
anti-CD19 CAR-T cells [1] = assay: CAR-T cell proliferation during stimulation (Incucyte); assay type: cell-based, human; conditions: 30 μg/mL plate-bound anti-idiotypic antibody, seven days
Description: T cell compositions containing T cells expressing an exemplary anti-CD19 CAR were generated from leukapheresis samples from two healthy human adult donors by a process that included immunoaffinity-based selection of T cells by separately selecting CD4+ and CD8+ cells from the samples, resulting in two compositions enriched for CD4+ and CD8+ cells, respectively, per donor. Cells of the enriched CD4+ and CD8+ compositions were separately activated with anti-CD3/anti-CD28 beads and subjected to lentiviral transduction with a vector encoding an anti-CD19 CAR. […]
Prior to use, the cryopreserved CD4+ and CD8+ CAR-engineered cell compositions were thawed and combined at approximately a 1:1 CD4:CD8 ratio for each donor to prepare a combined CD4+ CAR+ and CD8+ CAR+ T cell composition. The effects of treatment with Compound 17 at various concentrations (0.1 nM, 1 nM, 10 nM, 100 nM, or 1000 nM) added at day 0 during stimulation of the combined CAR-T cell composition with a plate-bound CAR-specific anti-idiotypic antibody (see, e.g., WO2018/023100) or during co-culture with CD19-expressing cells was then assessed.
T cell proliferation during stimulation with 30 μg/mL of plate-bound anti-CAR anti-idiotypic antibody in the presence of Compound 17 was monitored for seven days using an Incucyte imaging system. […]

anti-CD19 CAR-T cells [2] = assay: Phenotype of chronically stimulated CAR-T cells concurrently treated; assay type: cell-based, human; conditions: concurrent treatment 0.1-1000 nM, chronic stimulation 7 days
Description: T cell compositions containing T cells expressing an exemplary anti-CD19 CAR were generated from leukapheresis samples from two healthy human adult donors by a process that included immunoaffinity-based selection of T cells by separately selecting CD4+ and CD8+ cells from the samples, resulting in two compositions enriched for CD4+ and CD8+ cells, respectively, per donor. Cells of the enriched CD4+ and CD8+ compositions were separately activated with anti-CD3/anti-CD28 beads and subjected to lentiviral transduction with a vector encoding an anti-CD19 CAR. The anti-CD19 CAR contained an anti-CD19 single-chain variable fragment (scFv) derived from a murine antibody (variable region derived from FMC63), an immunoglobulin-derived spacer, a transmembrane domain derived from CD28, a costimulatory region derived from 4-1BB, and a CD3-zeta intracellular signaling domain. The expression construct in the viral vector further contained sequences encoding a surrogate surface marker for CAR expression, which was separated from the CAR-encoding sequence by a T2A ribosome skip sequence. Transduced CD4+ or CD8+ T cell populations then were separately incubated in the presence of stimulating reagents for cell expansion. Expanded CD4+ and CD8+ cells were formulated and cryopreserved separately and stored. […]

[3] = system: anti-CD19 CAR-T cells with K562.CD19, Granta-519 and Raji cells; assay: Cytokine production of chronically stimulated, concurrently treated CAR-T cells, 2D co-culture; assay type: cell-based, human; conditions: concurrent treatment during chronic stimulation; 2D re-challenge, 48 h
Method: To simulate conditions of chronic stimulation, approximately 20,000 anti-CD19 CAR-expressing T cells of a combined CAR-T cell composition produced as described in Example 2 from two healthy adult donors were incubated with 30 µg/mL of plate-bound CAR-specific anti-idiotypic antibody (see, e.g., WO2018/023100) at 37 °C for a period of seven days. During this seven-day period, engineered CAR T cells were concurrently treated with Compound 17(0.1-1000 nM) or a vehicle control added at day 0.
Stimulated CAR T cells were then re-challenged with CD19-expressing tumor cells or tumor spheroids in the absence of Compound 17, and cytolytic activity and cytokine production were assessed.
To assess cytolytic function, the stimulated CAR-T cell composition was co-cultured with various CD19-expressing lymphoma cells at a 2.5:1 effector:target ratio. The tumor cells were engineered to express NucLight Red (NLR) and tumor cell number was monitored by Incucyte®. […] Duplicate values for cell compositions manufactured from the two different healthy donors are shown.
Supernatant was collected after 48 hours from the above co-cultures of chronically stimulated CAR-expressing T cells and CD19-expressing tumor cells. Cytokine production was measured from the supernatant by meso scale discovery (MSD) analysis of the collected cell supernatants. […]

[4] = system: Granta-519 tumor spheroids; assay: Rescue treatment: cytolytic activity of chronically stimulated CAR-T cells, 3D spheroids, Granta-519; assay type: cell-based, human; conditions: day 9
[5] = system: anti-CD19 CAR-T cells with A549.CD19 and Granta-519 tumor spheroids; assay: Rescue treatment: cytokine production of chronically stimulated CAR-T cells, 3D spheroids; assay type: cell-based, human; conditions: 3D spheroid co-culture, five days
Method: Anti-CD19 CAR-expressing T cells, produced as described in Example 2, were chronically stimulated with plate-bound CAR-specific anti-idiotypic antibody for seven days as described in Example 3, but in the absence of Compound 17 during chronic stimulation. Instead, chronically stimulated CAR T cells were treated with Compound 17 during re-challenge with CD19-expressing tumor cells, after which cytolytic activity and cytokine production were assessed.
Cytolytic activity also was assessed in CD19-expressing tumor spheroid cultures incubated with chronically stimulated CAR-T cells in the presence of DGKi. A549 CD19+ tumor spheroids or Granta-519 tumor spheroids were incubated with the anti-CD19 CAR-expressing T cells at an effector to target ratio of 1:2 for up to 14 days in the presence of DGKi (0-1000 nM). The tumor spheroids were engineered to express a red fluorescent dye to permit monitoring of tumor cell lysis by microscopy during the assay. Cytolytic activity was assessed by monitoring fluorescence over time, and the tumor volume (normalized to time zero) was measured as the number of red calibrated units (RCU)×μm^2 area. […]
Supernatant was collected at day 5 from the above tumor spheroid cultures with chronically stimulated CAR-expressing T cells. Cytokine production was measured from the supernatant by meso scale discovery (MSD) analysis of the collected cell supernatants. […]

Raji-rFluc cells [6] = assay: In vivo anti-tumor effect with lower CAR T cell dose, Raji-rFluc NSG mice (Example 7)
Method: The in vivo anti-tumor effects of a continuous Compound 17 dosing regimen in combination with a lower dose of CD19-directed CAR T cells were assessed.
These doses of CAR-expressing T cells were not expected to achieve complete tumor rejection.

Raji-rFluc cells [7] = system: Raji-rFluc cells
Method: For assessing in vivo anti-tumor effects, immunodeficient NSG mice were injected intravenously with 0.5×10^6 Raji-rFluc cells. […] This dose of CAR-expressing T cells was not expected to achieve complete tumor rejection.
For assessing tumor burden by bioluminescence imaging, mice received intraperitoneal injections of luciferin substrate resuspended in phosphate-buffered saline. Tumor burden and survival of treated mice were assessed until Day 50. In addition, flow cytometry for assessing circulating CAR T cell number and CD4 and CD8 expression was performed on Days 5, 12, 19, and 26. CAR expression was assessed using an anti-idiotypic (anti-ID) antibody specific for the CAR.

[8] = 0.3 or 0.6 mg/kg oral once daily Days 1-30 with 0.5×10^6 or 1×10^6 CAR T cells, vs CAR T cells alone
[9] = Compound 17: 0.3 mg/kg oral once daily Days 1-30 with CAR T cells, or KO CAR T cells
[10] = Compound 17: 0.3 mg/kg oral once daily Days 1-30 with CAR T cells, or KO CAR T cells, vs CAR T cells without DGK KO alone

Question: With `CC[C@H]1CN([C@@H](CC)c2ccc(C(F)(F)F)cc2)[C@H](CC)CN1c1nc(=O)n(C)c2ccc(C#N)nc12` [Compound 17, 4-((2S,5R)-2,5-diethyl-4-((S)-1-(4-(trifluoromethyl)phenyl)propyl)piperazin-1-yl)-1-methyl-2-oxo-1,2-dihydropyrido[3,2-d]pyrimidine-6-carbonitrile] as the compound, how does the “T cell proliferation (% confluence)” value (anti-CD19 CAR-T cells [1]) read?
Answer: The value was “did not affect T cell proliferation”.

Question: What about the “populations of highly activated CAR-T cells (CD69 and PD-1 high)” value (anti-CD19 CAR-T cells [2]) of the same compound?
Answer: Its value is “increased populations of highly activated CAR-T cells”.

Question: And the “production of IFNγ, IL-2 and TNFα” value [3]?
Answer: Its value is “dose-dependent increase in production of all three cytokines”.

Question: What about the “cytolytic activity of CAR T cells against Granta-519 spheroids” value [4] of the same compound?
Answer: Its value is “improved the cytolytic activity of CAR T cells against both A549.CD19 and Granta-519 tumor spheroids”.

Question: And the “production of IFNγ, IL-2 and TNFα” value [5]?
Answer: The value was “dose-dependent increase in production of all three cytokines”.

Question: And the “CAR T cell expansion and/or persistence” value (Raji-rFluc cells [6]; 0.3 or 0.6 mg/kg oral once daily Days 1-30, all groups)?
Answer: Its value is “increased CAR T cell expansion and/or persistence in all groups”.

Question: And the survival (Raji-rFluc cells [6]; [8])?
Answer: The survival was “improved survival in all groups”.

Question: What about the tumor burden (Raji-rFluc cells [6]; [8]) of the same compound?
Answer: The tumor burden was “lowered tumor burden”.

Question: And the “tumor suppression (tumor control index)” value (Raji-rFluc cells [6]; [8])?
Answer: Its value is “enhanced tumor suppression in all groups”.

Question: What about the “CAR T cell expansion, lower CAR T cell dose” value (Raji-rFluc cells [6]; 0.5×10^6 CAR T cells + 0.3 mg/kg, relative to higher CAR T cell dose in combination with Compound 17) of the same compound?
Answer: Its value is “CAR T cell expansion was delayed”.

Question: What about the “circulating CAR T cell counts, lower CAR T cell dose” value (Raji-rFluc cells [6]; 0.5×10^6 CAR T cells + 0.3 mg/kg, vs higher CAR T cell dose alone) of the same compound?
Answer: The value was “later exceeded circulating CAR T cell counts for the group that received the higher CAR T cell dose alone”.

Question: And the “CAR T cell expansion and/or persistence” value (Raji-rFluc cells [7]; [9])?
Answer: The value was “improved CAR T cell expansion and/or persistence”.

Question: What about the tumor burden (Raji-rFluc cells [7]; [9]) of the same compound?
Answer: The tumor burden was “tumor burden was reduced”.

Question: And the “anti-tumor efficacy (tumor control index)” value (Raji-rFluc cells [7]; [10])?
Answer: Its value is “improved anti-tumor efficacy”.

Question: And the survival (Raji-rFluc cells [7]; [10])?
Answer: Its survival is “improved survival”.

Question: What about the “tumor burden, survival, and CAR T cell expansion and/or persistence vs DGKα/ζ dual KO CAR T cells” value (Raji-rFluc cells [7]; continuous DGKi administration with CAR T cells) of the same compound?
Answer: Its value is “comparable to those achieved with administration of DGKα/ζ dual KO CAR T cells”.
